Assay in all cases: NADPH formation at […] nm, plate reader, Michaelis-Menten nonlinear fit
What all share (assay type): biochemical
Holding throughout (conditions): 200 µM NADP+, 100 mM beta-mercaptoethanol, Tris/HCl pH 7.6, 30 °C; WT values said to accord with the authors' earlier paper [22]

Assay [1] addresses T1, 10-formyl-THFDH (Amel_10-formyl-THFDH) (Apis mellifera, UniProt A0A7M7GVR6).
T1 construct: gene LOC551401; full-length ORF, N-terminal 6xHis tag (MHHHHHHAQLKVA...) not reported cleaved, baculovirus expression in Hi5 insect cells, Ni-NTA purified

The target of assay [2] is T1, 10-formyl-THFDH (Amel_10-formyl-THFDH). The source holds these as a separate data set.
The target is the same in assay [3]. The source holds these as a separate data set.
The target is the same in assay [4]. This is another data set of the same source.

Here are results for 1 compound from publication PMC9820478, “The Active Site of the Enzyme 10-Formyl-THFDH in the Honey Bee Apis mellifera—A Key Player in Formic Acid Detoxification” (International Journal of Molecular Sciences, 2022).

Each structure is given as a SMILES string.

T1 sequence (A0A7M7GVR6 entry or part of it): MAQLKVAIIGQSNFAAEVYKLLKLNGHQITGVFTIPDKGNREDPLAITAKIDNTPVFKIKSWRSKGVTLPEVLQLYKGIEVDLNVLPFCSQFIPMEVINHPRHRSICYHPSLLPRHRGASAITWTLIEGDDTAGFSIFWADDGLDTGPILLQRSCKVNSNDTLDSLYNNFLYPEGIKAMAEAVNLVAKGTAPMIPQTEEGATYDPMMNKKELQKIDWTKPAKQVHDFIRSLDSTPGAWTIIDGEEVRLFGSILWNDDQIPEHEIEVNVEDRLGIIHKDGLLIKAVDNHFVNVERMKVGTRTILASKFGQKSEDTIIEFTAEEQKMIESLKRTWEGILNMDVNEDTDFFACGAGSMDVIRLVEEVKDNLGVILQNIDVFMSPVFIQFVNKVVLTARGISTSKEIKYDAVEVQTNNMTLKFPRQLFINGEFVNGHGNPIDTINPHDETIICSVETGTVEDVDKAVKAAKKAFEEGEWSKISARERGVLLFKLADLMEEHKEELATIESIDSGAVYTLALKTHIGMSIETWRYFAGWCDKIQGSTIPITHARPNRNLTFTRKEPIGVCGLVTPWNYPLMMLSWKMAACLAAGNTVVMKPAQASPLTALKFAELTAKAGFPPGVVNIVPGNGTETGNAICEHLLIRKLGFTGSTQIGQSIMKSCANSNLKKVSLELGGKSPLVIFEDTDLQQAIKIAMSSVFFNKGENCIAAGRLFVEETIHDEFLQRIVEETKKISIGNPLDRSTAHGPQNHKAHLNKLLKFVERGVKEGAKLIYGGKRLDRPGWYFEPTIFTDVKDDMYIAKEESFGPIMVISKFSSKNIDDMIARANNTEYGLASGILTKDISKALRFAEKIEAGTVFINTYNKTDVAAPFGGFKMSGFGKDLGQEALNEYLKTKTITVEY

On to `Nc1nc2c(c(=O)[nH]1)NC(CN(C=O)c1ccc(C(=O)N[C@@H](CCC(=O)O)C(=O)O)cc1)CN2` (stereo partly shown) [10-formyl-THF], for which the “NADPH formation at 340 nm, plate reader, Michaelis-Menten nonlinear fit” value in assay [1], in assay [3] and in assay [4] was “The mutations lost their activity almost entirely” in each case. The Km in assay [2] was 9.6 µM.

For orientation: Km means the concentration of substrate that gives half-maximal velocity.
